# Results as given in ChEMBL document CHEMBL3988442, “University of Dundee, Small-Polar-MMV Screening Library” (2021).
# Columns and labels:
# [1] = microbe, parasite or virus in culture; details: Mycobacterium tuberculosis, 72 h, read-out: pIC50 (converted)
# [2] = microbe, parasite or virus in culture; details: Mycobacterium tuberculosis, 96 h, read-out: pIC50 (converted)
Compound,IC50 [1] [µM],IC50 [2] [µM]
Cc1cccc(-c2noc([C@@H]3Cc4nc[nH]c4CN3)n2)c1,1.94,–
O=C1N(c2ccccc2)C[C@H]2CN(C3CCC3)CCN12,7.22,–
CC(=O)N1CCC(N2CCOC[C@H]2c2nc(-c3ccc(Cl)s3)c[nH]2)CC1,–,> 50.1
Cc1cc(NCCN)nc(-c2ccccc2O)n1,> 50.1,–
CN1CCN(C(=O)c2cc3sccc3n2Cc2ccc(Cl)cc2)CC1,–,> 50.1
CCc1c(C)nc(-n2nc(-c3cccs3)cc2N)[nH]c1=O,44,–
COc1ccc(S(=O)(=O)N2CCC(Cn3ccnc3)CC2)cc1,–,> 50.1
COc1cc(C(=O)NCCc2ccccc2OC)on1,> 50.1,–
Cc1noc(C[C@@H]2COC[C@H]3CN(C(=O)C4=CCCC4)C[C@@H]23)n1,> 50.1,–
CC(C)CN1Cc2nc(N3CCCC3)ncc2C1=O,–,> 50.1
Cc1nn(C)c2c(N3CCN(C)CC3)nc(C3CC3)nc12,47.6,–
Cc1cc2c(cc1Cl)C=CC1(CCN(CC(=O)N3CCCC3)CC1)O2,> 50.1,–
CCCn1cc(Cl)c(C(=O)N2C[C@@H](O)[C@H](Oc3ccccc3)C2)n1,> 50.1,–
CN(CCCOc1ccccc1)C(=O)c1csc(-c2nnc[nH]2)n1,–,> 50.1
CCCc1nc(CN(CCO)Cc2cc(Br)ccc2F)no1,18.9,–
O=c1oc(-c2ccc(F)cc2)nn1CC1CCOC1 (stereo unspecified),34.3,–
O=C(CCC(F)(F)F)NCC1CCCS1 (stereo unspecified),8.35,–
N#Cc1csc(CNCCOc2ccccc2)c1,–,> 50.1
COc1cccc(-c2cnc(CNC(C)(C)c3nc(C)cs3)o2)c1,–,> 50.1
CC(C1CC1)N(C)Cc1nnc(-c2ccco2)o1 (stereo unspecified),–,> 50.1
CC(C)CCC(=O)NCC(=O)N1CCCCCC1c1ccco1 (stereo unspecified),–,6.55
CNS(=O)(=O)c1cccc(C(C)NCc2ccc(C)c(C)c2)c1 (stereo unspecified),–,> 50.1
CCNC(=O)CCCC(=O)N1CCc2cc(Cl)cc(Cl)c2C1,> 50.1,–
COCCN(Cc1ccccc1)Cc1nc(-c2ccsc2)no1,20.5,–
Cc1nnc(CN(Cc2ccccc2Br)C2CC2)o1,20.1,–
CCc1nnc(CN(C)CC2CCCCC2)o1,> 50.1,–

Compound,IC50 [1] [µM],IC50 [2] [µM]
Cc1ccc(NC(=O)c2ncc(C(N)=O)cc2Cl)cc1F,> 50.1,–
N#CCCCn1nnnc1Cc1ccc(Br)cc1,> 50.1,–
Cc1nc(CNC(=O)Nc2ccc3c(c2)CCCC(=O)N3)sc1C,> 50.1,–
CC(Cn1cccn1)NS(=O)(=O)Cc1ccccc1 (stereo unspecified),> 50.1,–
CN(C)c1ccc(CNC(=O)c2ccc(Cl)cc2F)cc1,–,> 50.1
Cc1cccnc1CN(C)C(C(=O)O)c1ccc(-c2ccn[nH]2)cc1 (stereo unspecified),> 50.1,–
O=C1N(Cc2ccc(F)c(F)c2)CCCC12CCN(C1CCCC1)C2 (stereo unspecified),> 50.1,–
Cc1nc(-c2cc(F)c3c(c2)CC(CN)O3)c[nH]1 (stereo unspecified),2.55,–
Fc1ccccc1CN1CCCC2(CCN(c3ncccn3)C2)C1 (stereo unspecified),30.4,–
Cc1cc(N2Cc3cnn(CCO)c3C2)nc(-c2ccccc2O)n1,> 50.1,–
O=C1N(Cc2ccc(F)cc2)CCCC12CCN(C1CCSCC1)C2 (stereo unspecified),> 50.1,–
Cc1nc(CN2CCC(NS(C)(=O)=O)CC2)co1,> 50.1,–
Cc1cccc2cc(CO)c(N3Cc4cnc(C(C)(C)C)nc4C3)nc12,> 50.1,–
Cc1cc(F)ccc1CN1CCCC(O)(CN2CCCC2)C1 (stereo unspecified),> 50.1,–
c1ccc(-c2nc3c(c(NCCc4c[nH]cn4)n2)CCNC3)cc1,10.9,–
COc1cnc(C2(O)CCN(C(=O)c3cccnc3)CC2)c(OC)n1,> 50.1,–
Cc1ccccc1NC1CCN(C(=O)CCc2ccco2)CC1,> 50.1,–
Cc1csc(N2CCCN(CCC(=O)NC(N)=O)CC2)n1,39.4,–
COc1cccc(CN2CCCC2c2c(C)nn(C)c2C)c1 (stereo unspecified),46.9,–
Cn1ccc(CN2CCOCC23CCNCC3)n1,–,> 50.1
Cc1cccc(N2CCC3(CCCC(=O)N3)CC2)n1,–,> 50.1
Cc1ccc(CNCC2Cn3nnc(-c4cccc(F)c4)c3CO2)o1 (stereo unspecified),8.85,–
CN(C)CCN1C(=O)CCC12CCCN(C(=O)c1cccnc1)CC2 (stereo unspecified),–,> 50.1
Cc1noc(C)c1-c1cccc(C2CN(CC(=O)N(C)C)CCO2)n1 (stereo unspecified),–,> 50.1
Cc1cc(CC(=O)NCCCc2ccncc2)on1,> 501,–
